The subject of one experiment is GSK3β and CK1. Description: Phosphorylation of GST-fusion proteins by GSK3β and CK1. To be noted: data not shown. It counts as biochemical.
The target in experiment [1] is catalytic domain of mouse GSK3β (residues 27–393) (mouse) (UniProt Q9WV60).
The target in experiment [2] is GSK3β catalytic domain, 27-393 (UniProt Q9WV60). The experiment can be described thus: inhibition of GSK3β kinase activity, band shift. As to conditions: reference: non-phosphorylated peptide …; sites S1490.
Experiment [3] addresses T1, GSK3β (Mus musculus, UniProt Q9WV60).
T1 construct: The catalytic domains of mouse GSK3β (residues 27–393) and CK1ε (residues 1–319) were expressed and purified; made in house
The experiment can be described thus: In vitro GSK3β activity assay with synthetic peptides (phosphorylation of primed β-catenin N-terminal fragment). It counts as biochemical. As to conditions: primed β-catenin N-terminal fragment 7 µM, 1 mM ATP, pH 8.0, 30 min at 37°C, 4–7 independent experiments. An excerpt: We synthesized one dually-phosphorylated (NPPPpSPApTERSH, where pS or pT designates a phosphorylated Ser or Thr residue), two singly-phosphorylated (NPPPSPApTERSH and NPPPp[…]) and one non-phosphorylated ([…]) peptides derived from the first PPPSPxS motif of LRP6 (Fig. 1A). To measure the GSK3β activity toward β-catenin in vitro, we utilized a β-catenin N-terminal fragment (residues 1–133), whose Ser45 was prephosphorylated by CK1, as a substrate (Ha et al., 2004). Each synthetic peptide was added to a reaction mixture containing the purified GSK3β enzyme and the substrate β-catenin N-terminal fragment. The GSK3β activity was determined through measurement of the intensity of the supershifted (retarded) β-catenin bands (Fig. S3), which represent the phosphorylated product species (Fig. S4), on an SDS-polyacrylamide gel (Figs. S3, S4, S5, S6, S7). […] This corresponds well with the results of Zeng et al., who reported that the first Ser residue in the PPPSPxS motif has a more important role in Wnt/β-catenin signaling than the second Ser residue.
The catalytic domains of mouse GSK3β (residues 27–393) and CK1ε (residues 1–319) were expressed and purified as previously described. The N-terminal region (residues 1–133) of β-catenin was expressed in Escherichia coli as a GST-fusion protein with a TEV protease cleavage site and then purified using Glutathione-agarose. Subsequently, the GST tag was cleaved using recombinant TEV protease and was removed by repeated HiTrapQ anion-exchange chromatography. The N-terminal region of β-catenin was then phosphorylated by incubation with the catalytic domain of CK1ε (0.28 mg/ml) at 37°C for 20 min in 50 mM Tris buffer (pH 8.0) containing 10 mM MgCl2, 10 mM 2-mercaptoethanol, and 2 mM phenylmethylsulfonylfluoride. The phosphorylated β-catenin fragment was then further purified using HiTrapQ anion-exchange chromatography to remove the CK1ε enzyme. […]

Another experiment relates to Xenopus embryos. The experiment can be described thus: Microinjection into Xenopus embryos, second body axis formation. It is filed as in vivo, Xenopus laevis. To be noted: peptide 1 ng co-injected with XWnt8 0.5 pg. An excerpt:
It is well established that Wnt signaling reduces GSK3β activity during development of the Xenopus embryo [24], and that the suppressed activity of GSK3β induces a second body axis in the Xenopus embryo in the response to Wnt. To examine the in vivo effect of the PPPSPxS motif on Wnt/β-catenin signaling, we injected the synthetic peptides into Xenopus embryos, along with a small amount of Xenopus Wnt8 that is insufficient to induce second body axis formation on its own. […] It is likely that a slight reduction in the GSK3β activity due to the activity of the exogenous Wnt on the endogenous LRP6/5 is required for the peptide to cause a sufficient inhibition of GSK3β to trigger Wnt/β-catenin signaling. Moreover, even if the amount of peptide injected is well above physiological concentrations, the effect is specific to the phosphorylated peptide.
Figure 3 The effect of the injected PPPSPxS peptides to the Xenopus embryos. Xenopus Wnt8 protein (XWnt8; 0.5 pg) was co-microinjected with each peptide (1 ng) into the ventrovegetal region of Xenopus embryos. […]
Xenopus laevis was purchased from Xenopus I and Nasco. […] In vitro fertilization was performed as described previously, and the developmental stages of the embryos were determined according to Nieuwkoop and Faber. […]

Experiment [4] relates to GSK3β. To be noted: toward full-length β-catenin; cited from earlier work. The protocol: We next sought to determine if the phosphorylated LRP6 motifs are capable of inhibiting GSK3β in the Axin complex. An in vitro kinase assay with Axin-bound GSK3β was performed by adding the purified GSK3β binding domain (GBD) of Axin to the reaction mixture.
The target of experiment [5] is T2, catalytic domain of mouse GSK3β (residues 27–393) (mouse, UniProt Q9WV60 27-393).
T2 construct: GSK3β (glycogen synthase kinase 3 beta), mouse, catalytic domain, residues 27-393; also called recombinant GSK3β catalytic domain; source: recombinant, expressed and purified as previously described [32]
The experiment can be described thus: far-Western, overlay or dot blot; 15 µg GST-miniCL on PVDF; membrane incubated with GSK3β (2 µg/ml) and/or His-Axin (12 µg/ml) in TBST containing 1% skim milk. As to conditions: both partners purified.

Experiment [6] concerns the target T2, catalytic domain of mouse GSK3β …. The experiment can be described thus: steady-state kinetics of enzyme inhibition (GSK3β kinase assay, band shift on SDS-PAGE); apparent Ki; 50 mM Tris pH 8.0, 10 mM MgCl2, 10 mM 2-mercaptoethanol, 1 mM ATP, 8 ng GSK3β catalytic domain, 6 µM primed β-catenin N-terminal fragment (1-133), 37°C; peptide 0, 1, 3, 10, 30 µM; (V0/Vi)−1 = [peptide]/Ki. To be noted: both partners purified.

Square brackets hold non-standard residues; d marks the D form. Ends that are not written are not given here. pT = C[C@@H](OP(=O)(O)O)[C@H](N)C(=O)O; pS = N[C@@H](COP(=O)(O)O)C(=O)O

For the molecule “GST-PPPAPxS: GST-fused LRP6 PPPAPxS, residues 1485–1497 with the substitution at Ser1490 (LNPPPAPATERSH; also: GST-fused, end not given here)”, the “Phosphorylation by GSK3β and CK1” value in the experiment on GSK3β and CK1 is reported as “not phosphorylated”.

Turning to “GST-PPPSPxS: GST-fused LRP6 PPPSPxS, residues 1485–1497 (LNPPPSPATERSH; also: GST-fused, end not given here)”, in the experiment with GSK3β and CK1, the “Phosphorylation by GSK3β and CK1” value is recorded as “not phosphorylated”.

“GST-fused mouse Axin GBD (GSK3β binding domain, residues 512–530) (domain or fragment)” gave an inhibition of in vitro GSK3β activity at above 2.5 µM of GST-Axin GBD in experiment [1] of 20%.

With “LRP6 (from UniProt O75581) pS1490 peptide NPPPpSPATERSH”, the “binding against the reference” value in experiment [2] is “gained”.

Regarding “NPPPSPATERSH [PPPSPxS, non-phosphorylated peptide derived from the first PPPSPxS motif of LRP6]”, the “Inhibitory effect on GSK3β activity toward β-catenin” value on GSK3β [3] (at concentrations up to 100 µM) was “did not show any inhibitory effect on the GSK3β activity”. The “Induction of second body axis” value in the experiment on Xenopus embryos was “did not”.

For “NPPPpSPATERSH [PPP(p)SPxS, singly-phosphorylated peptide (first Ser/Thr) derived from the first PPPSPxS motif of LRP6]”, the “Inhibitory effect on GSK3β activity toward β-catenin” value at GSK3β [3] (at 100 µM) was “strong inhibitory effect close to that of the dually-phosphorylated peptide”. Further, in the experiment with Xenopus embryos, the “Induction of second body axis” value is “induced the second body axis with an efficiency comparable to that of the dually-phosphorylated peptide”.

Consider “full-length Axin: full-length Axin scaffold protein”, for which, in the experiment with GSK3β [4], the “Effect on GSK3β activity” value is “increases GSK3β activity”.

B1: GST-fused LRP6 miniCL (residues 1470–1510 of human LRP6), not phosphorylated (domain or fragment, UniProt O75581 1470-1510, looked up)
chain: SSSSSSTKGTYFPAILNPPPSPATERSHYTMEFGYSSNSPS
modifications: also: GST fusion (GST left off)
notes: LRP6, human, intracellular fragment miniCL, residues 1470-1510 (Ser/Thr rich cluster and first PPPSPxS motif); also called GST-miniCL; LRP6 miniCL region; source: E. coli, purified (Glutathione-agarose, HiTrapQ)
On to B1, for which, in experiment [5], the binding result is recorded as “binds”.

B2: dually-phosphorylated LRP6 PPPSPxS peptide (NPPPpSPApTERSH) (peptide)
peptide: {biotin (sulfo-NHS-SS-biotin)}-NPPP[pS]PA[pT]ERSH-NH2
notes: LRP6, first PPPSPxS motif; The biotin is joined by a disulfide that can be cut by reduction; the kinase buffer holds 10 mM 2-mercaptoethanol; also called PPP(p)SPx(p)S; dually-phosphorylated peptide; source: synthetic peptide (solid-phase synthesis)
Take B2: in experiment [6], the Ki was 13 µM.
